# In patent US20230293560A1, “METHOD FOR MODULATING THE BLADDER MICROBIOME TO IMPROVE BLADDER HEALTH” (Kimberly-Clark Worldwide, Inc., priority 2020, published 2023):
# Several values for one entry are separate records, joined by “and”; a condition that tells them apart may be missing. Equal entries are not always repeated.
# Tests used:
# [1] = test system: S. anginosus, KC18-1131-3B, Bladder (Sa-2); assay type: cell-based; settings: Table 6, prebiotic 2%, one line per replicate; for Sa-2 MRS Δ / Sa-2 TSA Δ: change vs start, background growth in CHL media subtracted; for Sa-2 MRS Δ: MRS agar; for Sa-2 MRS end / Sa-2 TSA end: competition Sa-2 vs Lc-3, 48 hours; for Sa-2 MRS end: anaerobic, enumerated on MRS agar; for Sa-2 TSA end: enumerated on TSA
# Method: (§1) Further testing was conducted to put the prebiotic compounds in competition assay testing, as further described in the test methods section herein. In the competition assay testing, each competition involved testing a single prebiotic compound with the commensal bacteria species of L. crispatus, KC18-1173-1, Bladder (“Lc-3”—Table 2) against the pathogenic bacterial species of S. anginosus, KC18-1131-3B, Bladder (“Sa-2”—Table 2).
# (§2) • 1. An in house bacterial agar was created based on MRS agar (Kaplan and Hutkins, 2000) where the glucose is substituted for the prebiotic to be tested (either dextran MW ˜6,000, alpha-cyclodextrin, glucomannan, or pectin), bromocresol purple was included as a pH indicator. • 2. Bacteria were enumerated on each agar and color changes were recorded. Method for Competition Assay (Modified from “In Vitro Evaluation of Nutrients that Selectively Confer a Competitive Advantage to Lactobacilli” Vongsa et al, Beneficial Microbes 2016) • 1. Create 2% w/v stock of prebiotic or positive control (glucose/dextrose) as described above. • 2. From a freezer stock subculture the bacteria twice into De Man, Rogosa and Sharpe (MRS) broth (BD Difco, Becton Dickinson, Franklin Lakes, NJ), 37° C., stationary, anaerobic, overnight. • 3. From the last subculture, plate onto an MRS agar plate for L. crispatus KC18-1173-1 or blood agar for S. anginosus KC18-1131-3B, grow 37° C., stationary, anaerobic, overnight. • 4. Create a bacterial suspension by using a sterile tipped swab to transfer colonies of bacteria into a PBS suspension blank to a 2 MacFarland for both species. • 5. Enumerate the starting culture. • 6. Add 9.8 mL of prebiotic media into a 15 mL conical tube. • 7. Add 100 μL of the diluted bacteria to the media, incubate at 37° C., anaerobic, 48 hours. • 8. Harvest 100 μL from the tube containing the prebiotic and plate onto MRS agar and tryptic soy agar (TSA). • 9. Enumerate the bacteria on the MRS agar (both the L. crispatus and the S. anginosus). Small colonies are counted as S. anginosus and large colonies are counted as L. crispatus. • 10. Enumerate the bacteria on the TSA plate. […] Growth of the bacteria in the negative control (CHL media without prebiotic) was subtracted from the growth in the presence of the prebiotic or formulation.
# [2] = test system: commensal and pathogenic bacterial species; test: Prebiotic screening, summary in words across species; assay type: cell-based; settings: commensal (L. crispatus, L. gasseri, L. jensenii) and pathogenic (S. anginosus, E. faecalis) species
# Method: Most of the prebiotic compounds were initially tested in a high throughput assay screening process, described further in the Test Methods section herein, but three prebiotics (as noted in Table 3) were tested using a plate assay screening process as described in the Test Methods section herein. The prebiotics were tested against the commensal bacterial species of Lactobacillus crispatus, Lactobacillus gasseri, and Lactobacillus jensenii and against the pathogenic bacterial species of Streptococcus anginosus and Enterococcus faecalis as shown in Table 2. The bacterial species were taken from different sources, listed as culture collection, bladder, and vagina.
# The results of the assay plate screening of the prebiotic compounds of Table 1 against the bacterial species of Table 2 is documented in Table 3 with the results being described by the following legend: • ++ if growth and fermentation was equal to or greater than the positive control • + if growth and fermentation was less than the positive control • […] if weak or no growth or fermentation • NT if not tested Some codes were not tested based on the use or non-use by the bacteria, as a way to efficiently move through the assay plate screening to the competition assay, described below.
# • 1. Create a 2% w/v stock of prebiotic or positive control (glucose/dextrose) to be tested in API 50 CHL media (Biomerieux, Marcy-I'Étoile, France). API 50 CHL media contains minimal amounts of carbon for growth, and a bromocresol purple as a pH indicator of fermentation. Filter sterilize media with a […]. Store at 4-6° C. until use. • 2. Add 180 μL of media containing the prebiotic to a sterile, flat bottom 96-well microtiter plate (Corning, Corning, NY). • 3. From a freezer stock subculture the bacteria twice into De Man, Rogosa and Sharpe (MRS) broth (BD Difco, Becton Dickinson, Franklin Lakes, NJ), 37° C., stationary, anaerobic, overnight. • 4. From the last subculture, plate onto an MRS agar plate (Teknova, Hollister, CA) and grow 37° C., stationary, anaerobic, overnight. • 5. Create a bacterial suspension by using a sterile tipped swab to transfer colonies of bacteria into a PBS suspension blank to a 0.5 MacFarland (S. anginosus or E. faecalis) or a 1 MacFarland (Lactobacillus species) from the MRS agar plate. • 6. Enumerate the starting culture. • 7. Inoculate the media alone and media containing the prebiotic or positive control with 20 μL of the bacterial suspension. • 8. Place the plate into a spectrophotometer (Molecular Devices, San Jose, CA) and read the plate every 20 minutes for 24-48 hours. Read wavelengths (OD 430, OD 590, and OD 660). A color change to yellow caused by a drop in pH will be read by an increase in the OD430 value and a decrease in the OD590 value and is indicative of bacterial fermentation. An increase in OD660 values is indicative of an increase in turbidity and bacterial growth.
# • 1. An in house bacterial agar was created based on MRS agar (Kaplan and Hutkins, 2000) where the glucose is substituted for the prebiotic to be tested (either dextran MW ˜6,000, alpha-cyclodextrin, glucomannan, or pectin), bromocresol purple was included as a pH indicator. • 2. Bacteria were enumerated on each agar and color changes were recorded. Method for Competition Assay (Modified from “In Vitro Evaluation of Nutrients that Selectively Confer a Competitive Advantage to Lactobacilli” Vongsa et al, Beneficial Microbes 2016) • 1. Create 2% w/v stock of prebiotic or positive control (glucose/dextrose) as described above. • 2. From a freezer stock subculture the bacteria twice into De Man, Rogosa and Sharpe (MRS) broth (BD Difco, Becton Dickinson, Franklin Lakes, NJ), 37° C., stationary, anaerobic, overnight. • 3. From the last subculture, plate onto an MRS agar plate for L. crispatus KC18-1173-1 or blood agar for S. anginosus KC18-1131-3B, grow 37° C., stationary, anaerobic, overnight. • 4. […]
# [3] = test system: ratio of L. crispatus/S. anginosus; test: Therapeutic effect protocol (competition assay); assay type: cell-based, Lactobacillus crispatus; Streptococcus anginosus; settings: Table 6; prebiotic 2%; Lc-3 vs Sa-2
# Source text: As used herein, the term “therapeutic effect” refers to the ability of the compositions and formulations of the present disclosure to stimulate the growth of L. crispatus relative S. anginosus measured according to the therapeutic effect protocol described below. The therapeutic effect can be expressed as a ratio of L. crispatus to S. anginosus and is desirably greater than about 100, more preferably greater than about 500 and more desirably greater than about 1,000.
# as §1, §2
# Colonies of L. crispatus and S. anginosus were tested against in the competition method assay test method as described above. The therapeutic effect was calculated by comparing the colony forming units recovered after the competition assay of both L. crispatus and S. anginosus and calculating the ratio of L. crispatus/S. anginosus. A larger number indicates an increase in L. crispatus and/or a decrease in S. anginosus and a smaller number indicates a decrease in L. crispatus and/or an increase in S. anginosus.
# [4] = test system: L. crispatus, KC18-1173-1, Bladder (Lc-3); test: Competition assay, L. crispatus recovered; assay type: cell-based, Lactobacillus crispatus; settings: Table 6, prebiotic 2%, one line per replicate; for Lc-3 MRS Δ: change vs start, background growth in CHL media subtracted, MRS agar; for Lc-3 MRS end: competition Sa-2 vs Lc-3, 48 hours, enumerated on MRS agar
# Method: as §1, §2
Compound,Sa-2 MRS Δ [1],Sa-2 TSA Δ [1],Sa-2 MRS end [1],Sa-2 TSA end [1],"overall outcome of the screening of Table 3, in words [2]",Therapeutic Effect (ratio of L. crispatus/S. anginosus) [3],Lc-3 MRS Δ [4],Lc-3 MRS end [4]
OC[C@@H](O)[C@@H](O[C@H]1O[C@H](CO)[C@@H](O)[C@H](O)[C@H]1O)[C@H](O)[C@@H](O)CO [Maltitol],−0.12 Log CFU/mL and −0.37 Log CFU/mL,0.41 Log CFU/mL and 0.47 Log CFU/mL,6.58 Log CFU/mL and 6.48 Log CFU/mL,7.26 Log CFU/mL and 7.6 Log CFU/mL,"not able to provide growth for most, if not all, commensal and pathogenic bacterial species",1.66E−02 (2×) and 2.51E−02 (2×),0.35 Log CFU/mL and −0.08 Log CFU/mL,5.48 Log CFU/mL and 6.00 Log CFU/mL
O=C(CO)[C@@H](O)[C@H](O)[C@H](O)CO[C@H]1O[C@H](CO)[C@@H](O)[C@H](O)[C@H]1O [Palatinose PST-PF],−1.28 Log CFU/mL,−2.68 Log CFU/mL and −0.94 Log CFU/mL,5.41 Log CFU/mL,3.95 Log CFU/mL and 5.58 Log CFU/mL,–,1.29E+04 (2×) and 1.41E+04 (2×),3.02 Log CFU/mL and 2.16 Log CFU/mL,8.06 Log CFU/mL and 7.90 Log CFU/mL
O=C(CO)[C@@H](O)[C@H](O)[C@H](O)CO[C@H]1O[C@H](CO)[C@@H](O)[C@H](O)[C@H]1O [Palatinose PST-PA],−1.63 Log CFU/mL,−0.56 Log CFU/mL and −1.23 Log CFU/mL,5.06 Log CFU/mL,6.07 Log CFU/mL and 5.29 Log CFU/mL,–,1.66E+02 (2×) and 1.50E+02 (2×),3.25 Log CFU/mL and 1.94 Log CFU/mL,8.29 Log CFU/mL and 7.68 Log CFU/mL
O=C(CO)[C@@H](O)[C@H](O)[C@H](O)CO[C@H]1O[C@H](CO)[C@@H](O)[C@H](O)[C@H]1O [Palatinose PST-N],−2.08 Log CFU/mL and −1.53 Log CFU/mL,−2.11 Log CFU/mL and −1.03 Log CFU/mL,4.29 Log CFU/mL and 5.16 Log CFU/mL,4.52 Log CFU/mL and 5.49 Log CFU/mL,–,8.71E+03 (2×) and 5.80E+03 (2×),3.42 Log CFU/mL and 2.48 Log CFU/mL,8.46 Log CFU/mL and 8.22 Log CFU/mL
O=CC[C@H](O)[C@H](O)CO [2-Deoxy-D-Ribose],−2.41 Log CFU/mL and −1.26 Log CFU/mL,−0.63 Log CFU/mL and −0.23 Log CFU/mL,4.29 Log CFU/mL and 5.59 Log CFU/mL,6.22 Log CFU/mL and 6.90 Log CFU/mL,"not able to provide growth for most, if not all, commensal and pathogenic bacterial species",6.03E−07 (2×) and 1.91E−03 (2×),−5.22 Log CFU/mL and −1.90 Log CFU/mL,0 Log CFU/mL and 4.18 Log CFU/mL
"O=C(CO)[C@@H](O)[C@H](O)[C@H](O)CO[C@H]1O[C@H](CO)[C@@H](O)[C@H](O)[C@H]1O [Palatinose Hydrate, 6-O-α-D-Glucopyranosyl-D-fructose]",−1.69 Log CFU/mL and −1.90 Log CFU/mL and −1.82 Log CFU/mL,−2.39 Log CFU/mL and −2.07 Log CFU/mL and −0.79 Log CFU/mL and −2.32 Log CFU/mL,5.16 Log CFU/mL and 4.47 Log CFU/mL and 4.88 Log CFU/mL,4.74 Log CFU/mL and 4.56 Log CFU/mL and 5.73 Log CFU/mL and 4.53 Log CFU/mL,–,1.74E+03 (2×) and 2.57E+03 (2×) and 3.29E+03 (2×) and 6.92E+03 (2×),2.93 Log CFU/mL and 2.26 Log CFU/mL and 3.24 Log CFU/mL and 1.90 Log CFU/mL,7.97 Log CFU/mL and 8.00 Log CFU/mL and 8.37 Log CFU/mL and 7.98 Log CFU/mL
O=C[C@@H](O)[C@H](O)[C@H](O)CO [D-Arabinose],−0.27 Log CFU/mL and −0.47 Log CFU/mL,−0.46 Log CFU/mL and −0.32 Log CFU/mL,6.43 Log CFU/mL and 6.38 Log CFU/mL,6.39 Log CFU/mL and 6.81 Log CFU/mL,"not able to provide growth for most, if not all, commensal and pathogenic bacterial species",4.07E−02 (2×) and 1.10E−01 (2×),−0.13 Log CFU/mL and −0.23 Log CFU/mL,5.00 Log CFU/mL and 5.85 Log CFU/mL
